The results in this text go back to patent US11702419B2, “Heterocyclic compound and use thereof” (Takeda Pharmaceutical Company Limited, priority 2018, dated 2023).

T1 sequence (Q13224 27-1484, other chains not shown): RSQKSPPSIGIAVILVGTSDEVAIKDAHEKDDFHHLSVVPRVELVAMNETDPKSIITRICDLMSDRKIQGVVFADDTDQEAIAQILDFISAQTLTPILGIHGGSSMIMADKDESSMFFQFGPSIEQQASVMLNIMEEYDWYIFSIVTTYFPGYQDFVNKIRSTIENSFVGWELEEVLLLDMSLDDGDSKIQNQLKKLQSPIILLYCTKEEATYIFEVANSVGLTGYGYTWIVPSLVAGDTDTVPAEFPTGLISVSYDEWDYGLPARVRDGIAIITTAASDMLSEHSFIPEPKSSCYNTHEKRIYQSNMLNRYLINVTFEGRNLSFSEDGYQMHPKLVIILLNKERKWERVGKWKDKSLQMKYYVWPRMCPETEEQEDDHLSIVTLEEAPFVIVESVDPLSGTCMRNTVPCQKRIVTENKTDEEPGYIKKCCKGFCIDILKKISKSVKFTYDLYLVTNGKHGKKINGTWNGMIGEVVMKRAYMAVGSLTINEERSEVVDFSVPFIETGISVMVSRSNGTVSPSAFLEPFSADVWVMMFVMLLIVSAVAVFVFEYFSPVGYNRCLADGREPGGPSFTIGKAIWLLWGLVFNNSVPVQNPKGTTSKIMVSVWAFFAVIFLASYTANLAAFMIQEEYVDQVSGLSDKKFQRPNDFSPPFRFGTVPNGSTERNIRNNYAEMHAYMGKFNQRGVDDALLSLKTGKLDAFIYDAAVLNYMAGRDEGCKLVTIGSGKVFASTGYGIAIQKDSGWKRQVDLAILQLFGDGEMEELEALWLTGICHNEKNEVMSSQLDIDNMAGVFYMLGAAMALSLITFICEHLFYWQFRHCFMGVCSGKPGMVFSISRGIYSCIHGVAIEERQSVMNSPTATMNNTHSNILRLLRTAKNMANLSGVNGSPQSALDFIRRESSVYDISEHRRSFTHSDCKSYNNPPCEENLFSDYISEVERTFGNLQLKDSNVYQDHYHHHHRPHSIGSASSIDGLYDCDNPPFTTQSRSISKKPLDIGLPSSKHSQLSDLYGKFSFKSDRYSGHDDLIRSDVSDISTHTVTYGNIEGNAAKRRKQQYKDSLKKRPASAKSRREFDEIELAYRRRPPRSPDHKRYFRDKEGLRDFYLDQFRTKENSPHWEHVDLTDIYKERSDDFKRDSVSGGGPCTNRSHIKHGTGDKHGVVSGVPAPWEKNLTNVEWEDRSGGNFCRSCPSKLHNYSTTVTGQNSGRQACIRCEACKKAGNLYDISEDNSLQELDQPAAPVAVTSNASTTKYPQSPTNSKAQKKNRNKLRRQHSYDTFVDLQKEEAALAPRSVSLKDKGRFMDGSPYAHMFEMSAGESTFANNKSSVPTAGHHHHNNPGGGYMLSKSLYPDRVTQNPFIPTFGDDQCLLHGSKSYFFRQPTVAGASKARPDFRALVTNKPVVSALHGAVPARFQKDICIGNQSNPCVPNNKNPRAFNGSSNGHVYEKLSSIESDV

The test has as its target T1, NMDA receptor composed of four subunits consisting of two sets of heterodimers of NR1 and NR2B (human GRIN1 and GRIN2B-expressing HEK293 cells) (Homo sapiens, UniProt Q13224).
T1 construct: host or cells: HEK293 (tetracycline-inducible expression)
As to the kind of experiment: NR2B Ca2+ influx assay. To be noted: 10 μM compound, glutamic acid/glycine-induced Ca2+ influx, FLIPR, read-out: inhibitory rate (10 μM compound concentration). Format: cell-based. Here is the method:
In order to confirm an “antagonistic action on an NMDA receptor containing the NR2B subunit” which the compound of the present invention has, inhibitory effect on the NMDA receptor activation was evaluated using “NMDA receptor composed of four subunits consisting of two sets of heterodimers of NR1 and NR2B”-expressing human fetal renal cells, specifically human glutamate ionotropic receptor NMDA type subunit 1 (GRIN1) and human glutamate ionotropic receptor NMDA type subunit 2B (GRIN2B)-expressing HEK293 cells.
As an index of the NMDA receptor activation, intracellular calcium ion (Ca^2+) influx caused by bonding of glycine and glutamate to NR1 and NR2B respectively was used. HEK293 cells were purchased from ChanTest. The cells were cultured in a DMEM/F-12 (COSMO BIO, 10-092-CM) medium containing 10% FBS (fetal bovine serum, AusGene), 100 units/mL penicillin, 100 μg/mL streptomycin, 500 μg/mL neomycin, 100 μg/mL Zeocin and 5 μg/mL Blasticidin at 37° C., 5% CO2. The cells were detached from flask with trypsin the day before the assay, suspended in a seeding medium (DMEM (Invitrogen, 31053) containing 10% FBS, 100 units/mL penicillin and 100 μg/mL streptomycin) at 8×10^5 cells/mL, seeded by 25 μL per well in a 384-well plate (Falcon, 356663) at 20000 cells/well, and cultured overnight in an incubator. On the day of the assay, tetracycline (Wako Pure Chemical Industries, 209-16561) was diluted with the seeding medium at 2 μg/mL, and the dilution was added at 25 μL/well to the plate seeded with the cells, and the cells were cultured for 2 hr in an incubator. Thereafter, the medium was removed, and the cells were washed with 50 μL/well of assay buffer (137 mM NaCl, 4 mM KCl, 1.8 mM CaCl2, 10 mM HEPES (pH 7.2), 10 mM Glucose, and 0.1% BSA). Then, a loading buffer (assay buffer containing 2.5 μM Fluo-4AM, 2 mM Amaranth and 1 mM Tartrazine) was added thereto at 25 μL/well, and loading was performed in the incubator for 30 min, and then at room temperature for 15 min. The test compound was diluted with the above-mentioned assay buffer so as to adjust the concentration to 30 μM, the obtained solution (25 μL) was added thereto (the final concentration 10 μM), and the cells were stood for 15 min at room temperature. Using FLIPR (Molecular Devices), 25 μL of an assay buffer containing 30 μM glutamic acid and 30 μM glycine was added thereto, and the fluorescence signal was measured every 3 seconds for 5 min. The relative activity value (inhibitory rate) was calculated when the cumulative total value of the fluorescence value of a well added with a buffer free of glutamic acid and glycine, relative to the cumulative total value of the fluorescence value of each well are regarded as 100% inhibition. The obtained value was evaluated as an inhibitory activity.
`O=C(NCc1nnn2cc(F)ccc12)c1ccc(OC(F)(F)F)cc1` [Example 1, N-((6-fluoro[1,2,3]triazolo[1,5-a]pyridin-3-yl)methyl)-4-(trifluoromethoxy)benzamide]: the inhibition at 10 µM came to 94%.
In the case of `Cc1cccn2nnc(CNC(=O)c3ccc(OC(F)(F)F)cc3)c12` [Example 2, N-((4-methyl[1,2,3]triazolo[1,5-a]pyridin-3-yl)methyl)-4-(trifluoromethoxy)benzamide] it was 54%; in that of `Cc1cccn2nnc(CNC(=O)c3ccc(OC(F)F)c(Cl)c3)c12` [Example 3, 3-chloro-4-(difluoromethoxy)-N-((4-methyl[1,2,3]triazolo[1,5-a]pyridin-3-yl)methyl)benzamide], 76%; in that of `COc1ncc(C(=O)NCc2cnn3ncccc23)cc1F` [Example 4, 5-fluoro-6-methoxy-N-(pyrazolo[1,5-b]pyridazin-3-ylmethyl)nicotinamide], 85%.
The same measure for `O=C(NCc1cnn2ncccc12)c1ccc(OC(F)(F)F)c(F)c1` [Example 5, 3-fluoro-N-(pyrazolo[1,5-b]pyridazin-3-ylmethyl)-4-(trifluoromethoxy)benzamide]: 99%.
In the case of `O=C(NCc1cnn2ncccc12)c1ccc(OC(F)F)c(Cl)c1` [Example 7, 3-chloro-4-(difluoromethoxy)-N-(pyrazolo[1,5-b]pyridazin-3-ylmethyl)benzamide], the inhibition at 10 µM amounted to 98%.
Regarding `O=C(NCc1cnn2ncccc12)c1cnc(OC(F)F)c(Cl)c1` [Example 8, 5-chloro-6-(difluoromethoxy)-N-(pyrazolo[1,5-b]pyridazin-3-ylmethyl)nicotinamide], the inhibition at 10 µM is 97%.
On to `COc1ncc(C(=O)NCc2cnn3ncccc23)cc1Cl` [Example 9, 5-chloro-6-methoxy-N-(pyrazolo[1,5-b]pyridazin-3-ylmethyl)nicotinamide], for which the inhibition at 10 µM was determined as 87%.
The same measure for `Cc1nn2ncccc2c1CNC(=O)c1ccc(OC(F)(F)F)c(F)c1` [Example 10, 3-fluoro-N-((2-methylpyrazolo[1,5-b]pyridazin-3-yl)methyl)-4-(trifluoromethoxy)benzamide]: 97%.
In the case of `Cc1ccc2c(CNC(=O)c3ccc(OC(F)(F)F)c(F)c3)cnn2n1` [Example 11, 3-fluoro-N-((6-methylpyrazolo[1,5-b]pyridazin-3-yl)methyl)-4-(trifluoromethoxy)benzamide] it was 98%; in that of `COc1c(F)cc(C(=O)NCc2cnn3ncccc23)cc1F` [Example 12, 3,5-difluoro-4-methoxy-N-(pyrazolo[1,5-b]pyridazin-3-ylmethyl)benzamide], 97%.
The same measure for `O=C(NCc1nnn2ccccc12)c1cnc(OC(F)F)c(F)c1` [Example 14, 6-(difluoromethoxy)-5-fluoro-N-([1,2,3]triazolo[1,5-a]pyridin-3-ylmethyl)nicotinamide]: 94%; for `O=C(NCc1cnn2ncccc12)c1ccc(OC(F)F)c(F)c1` [Example 15, 4-(difluoromethoxy)-3-fluoro-N-(pyrazolo[1,5-b]pyridazin-3-ylmethyl)benzamide]: 98%.
Regarding `O=C(NCc1cnn2ccncc12)c1ccc(OC(F)(F)F)c(F)c1` [Example 16, 3-fluoro-N-(pyrazolo[1,5-a]pyrazin-3-ylmethyl)-4-(trifluoromethoxy)benzamide], the inhibition at 10 µM turned out to be 97%.
The same measure for `Cc1nn2ncccc2c1CNC(=O)c1cnc(OC(F)F)c(F)c1` [Example 17, 6-(difluoromethoxy)-5-fluoro-N-((2-methylpyrazolo[1,5-b]pyridazin-3-yl)methyl)nicotinamide]: 94%; for `O=C(NCc1nnn2ncccc12)c1ccc(OC(F)(F)F)c(F)c1` [Example 18, 3-fluoro-N-([1,2,3]triazolo[1,5-b]pyridazin-3-ylmethyl)-4-(trifluoromethoxy)benzamide]: 98%; for `O=C(NCc1nnn2ncccc12)c1ccc(OC(F)(F)F)cc1` [Example 19, N-([1,2,3]triazolo[1,5-b]pyridazin-3-ylmethyl)-4-(trifluoromethoxy)benzamide]: 96%.
For `Cc1ccnn2ncc(CNC(=O)c3ccc(OC(F)(F)F)c(F)c3)c12` [Example 20, 3-fluoro-N-((4-methylpyrazolo[1,5-b]pyridazin-3-yl)methyl)-4-(trifluoromethoxy)benzamide], the inhibition at 10 µM was found to be 97%.
The same measure for `Cc1cnn2ncc(CNC(=O)c3ccc(OC(F)(F)F)c(F)c3)c2c1` [Example 21, 3-fluoro-N-((5-methylpyrazolo[1,5-b]pyridazin-3-yl)methyl)-4-(trifluoromethoxy)benzamide]: 97%.
On to `O=C(NCc1nnn2ncccc12)c1cnc(OC(F)F)c(Cl)c1` [Example 22, 5-chloro-6-(difluoromethoxy)-N-([1,2,3]triazolo[1,5-b]pyridazin-3-ylmethyl)nicotinamide], for which the inhibition at 10 µM is 98%.
In the case of `O=C(NCc1nnn2ncccc12)c1cnc(OC(F)F)c(F)c1` [Example 23, 6-(difluoromethoxy)-5-fluoro-N-([1,2,3]triazolo[1,5-b]pyridazin-3-ylmethyl)nicotinamide] it was 95%; in that of `CCOc1nn2ncccc2c1CNC(=O)c1cnc(OC(F)F)c(F)c1` [Example 24, 6-(difluoromethoxy)-N-((2-ethoxypyrazolo[1,5-b]pyridazin-3-yl)methyl)-5-fluoronicotinamide], 70%; in that of `CCOc1nn2ncccc2c1CNC(=O)c1ccc(OC(F)F)c(F)c1` [Example 25, 4-(difluoromethoxy)-N-((2-ethoxypyrazolo[1,5-b]pyridazin-3-yl)methyl)-3-fluorobenzamide], 78%.
In the case of `CCc1nn2ncccc2c1CNC(=O)c1cnc(OC(F)F)c(F)c1` [Example 26, 6-(difluoromethoxy)-N-((2-ethylpyrazolo[1,5-b]pyridazin-3-yl)methyl)-5-fluoronicotinamide], the inhibition at 10 µM is 90%.
The same measure for `CCc1nn2ncccc2c1CNC(=O)c1ccc(OC(F)F)c(F)c1` [Example 27, 4-(difluoromethoxy)-N-((2-ethylpyrazolo[1,5-b]pyridazin-3-yl)methyl)-3-fluorobenzamide]: 92%.
Take `O=C(NCc1c(C2CC2)nn2ncccc12)c1cnc(OC(F)F)c(F)c1` [Example 28, N-((2-cyclopropylpyrazolo[1,5-b]pyridazin-3-yl)methyl)-6-(difluoromethoxy)-5-fluoronicotinamide]: the inhibition at 10 µM was 85%.
Regarding `O=C(NCc1c(C2CC2)nn2ncccc12)c1ccc(OC(F)F)c(F)c1` [Example 29, N-((2-cyclopropylpyrazolo[1,5-b]pyridazin-3-yl)methyl)-4-(difluoromethoxy)-3-fluorobenzamide], the inhibition at 10 µM was 89%.
For the molecule `O=C(NCc1nnn2ncccc12)c1ccc(OC(F)F)c(Cl)c1` [Example 30, 3-chloro-4-(difluoromethoxy)-N-([1,2,3]triazolo[1,5-b]pyridazin-3-ylmethyl)benzamide], the inhibition at 10 µM was 97%.
In the case of `COCc1nn2ncccc2c1CNC(=O)c1cnc(OC(F)F)c(F)c1` [Example 31, 6-(difluoromethoxy)-5-fIuoro-N-((2-(methoxymethyl)pyrazolo[1,5-b]pyridazin-3-yl)methyl)nicotinamide] it was 84%; in that of `O=C(NCc1nnn2ncccc12)c1ccc(OC(F)F)c(F)c1` [Example 33, 4-(difluoromethoxy)-3-fluoro-N-([1,2,3]triazolo[1,5-b]pyridazin-3-ylmethyl)benzamide], 97%; in that of `O=C(NCc1nnn2ccccc12)c1ccc(OC(F)F)c(Cl)c1` [Example 34, 3-chloro-4-(difluoromethoxy)-N-([1,2,3]triazolo[1,5-a]pyridin-3-ylmethyl)benzamide], 96%.
In the case of `O=C(NCc1nnn2ccccc12)c1ccc(OC(F)F)c(F)c1` [Example 35, 4-(difluoromethoxy)-3-fluoro-N-([1,2,3]triazolo[1,5-a]pyridin-3-ylmethyl)benzamide], the inhibition at 10 µM was determined as 94%.
